Results published in publication PMC10566475, “A cell-active cyclic peptide targeting the Nrf2/Keap1 protein–protein interaction” (Chemical Science, 2023).
Where two headings read alike, the source gives them in different places. *1 amine or outer side, *2 acyl side, *3 side chain or, on linkers, in order; H or OH if unused. Where a SMILES comes first, the peptide text is derived from it. Bridges are numbered along the chain shown (N, C = ends). X1 = CN(CC(=O)O)c1nc(CC[*:1])cc(CC[*:2])n1; mXylylene = c1cc(C[*:1])cc(C[*:2])c1

Tests used:
[1] = molecular target: T1, human Keap1 Kelch domain (A321-T609) (Homo sapiens, UniProt Q14145); test: Surface plasmon resonance (SPR) direct binding assay, immobilised Keap1 Kelch domain
T1 construct: human Keap1 Kelch domain (A321-T609) fused with N-terminal 6x His-tag; 6xHis (N); made in house
T1 sequence (Q14145 321-609): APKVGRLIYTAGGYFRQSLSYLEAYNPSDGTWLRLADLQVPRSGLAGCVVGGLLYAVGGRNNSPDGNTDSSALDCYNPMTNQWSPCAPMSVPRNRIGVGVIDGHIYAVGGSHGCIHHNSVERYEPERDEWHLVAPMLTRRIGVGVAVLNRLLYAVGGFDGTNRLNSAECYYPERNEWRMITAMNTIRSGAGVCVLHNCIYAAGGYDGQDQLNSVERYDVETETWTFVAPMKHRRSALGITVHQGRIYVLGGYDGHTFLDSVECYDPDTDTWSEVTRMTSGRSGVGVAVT
From the text: (§1) We based the design of our Nrf2-like cyclic peptides around the amino acid sequence of the ETGE motif (namely 12-mer ^73[…]^84L) and SAR studies reported in the literature.[9,10,12,14] The […] motif is known to adopt a beta-turn conformation upon binding to Keap1. Residues Q73-Q75 and L85 stabilise the bound conformation, L76-D77 and E79-G81 bind deep into the pocket with E79 and E82 forming electrostatic interactions with Keap1 and D77 and T80 stabilising the beta-turn via H-bonds with E78 not contributing to the binding. […] The ability of the cyclic peptides to bind to the Kelch domain of Keap1 was evaluated using surface plasma resonance (SPR), where the Kelch domain is immobilised onto a SPR sensor chip. Additionally, we assessed the ability of the peptides to inhibit the PPI between Nrf2 and the Kelch domain of Keap1 using a time-resolved FRET (TR-FRET) assay. Here, the IC50 for inhibition of the interaction between the human Keap1 Kelch domain and an Nrf2-ETGE peptide is measured.
(§2) Surface Plasmon Resonance (SPR)
(§3) Peptide affinities to the Kelch domain of Keap1 is determined in a direct binding assay using 8K surface plasmon resonance (SPR) biosensor (Cytiva) at 20°C. Immobilization of Keap1 Kelch domain on a CM5 sensor chip (Cytiva) is performed using standard amine coupling procedure. The surface is washed with 10mM NaOH, 1M NaCl before activated with EDC/NHS (Cytiva), followed by immobilization of human Keap1 Kelch domain (A321-T609) fused with N-terminal 6x His-tag7 (in 10 mM MES, pH=6.4).
(§4) Finally, the surface is deactivated by Ethanolamine. Immobilization levels are typically 5000-6000 RU.
(§5) The reference spot is treated as described, omitting the injection of Keap1. Compound concentration series are injected over the immobilized protein in increasing concentrations using single cycle kinetics (SCK) in running buffer (10 mM HEPES, 150 mM NaCl, 0.05% Tween20, 1 mM TCEP, pH 7.4). A 1:1 Langmuir interaction model is fitted to the experimental traces, enabling determination of kon, koff and […]
(§6) In the time-resolved Förster resonance energy transfer (TR-FRET) assay8 the IC50 of inhibitors which […]
(§7) are determined. The TR-FRET is measured between a Tb-labelled mAb (Anti—6-His, Tb cryptate Gold, CisBio 61H12TLB) that binds to Keap 1 Kelch domain and d2-labelled SA-biotin-peptide.
(§8) The assay was performed in 384-well white low-volume, medium binding plates (Greiner Bio One, Austria) in 20 mM HEPES pH 7.5, 150 mM NaCl, 2 mM GSH (Sigma-Aldrich, USA),1mM EDTA (Sigma-Aldrich, USA), and 0.01% Pluronic F127 (MilliporeSigma, USA), with a final reaction volume of 10 µL.
(§9) To determine the ability of synthesized peptide to inhibit PPI between the Keap1 Kelch domain and Nrf2, 1nM purified human Keap1 Kelch domain (A321-T609) fused with N-terminal 6x His-tag, 5 nM biotinylated Nrf2 peptide ([…], Genescript, USA), d2-labeled streptavidin (Revvity, USA), and […] anti-His monoclonal antibody tagged with terbium cryptate (Revvity, USA), were incubated in the presence of varying concentrations of investigated peptides for 3 h at room […]
(§10) 7 Li X, Zhang D, Hannink M, Beamer LJ. Crystallization and initial crystallographic analysis of the Kelch domain from human Keap1. Acta
(§11) 8 S. Lee, D. Ali Abed, L. J. Beamer, L. Hu, Development of a Homogeneous Time-Resolved Fluorescence Resonance Energy Transfer (TR-

[2] = molecular target: T2, interaction between the human Keap1 Kelch domain and an Nrf2-ETGE peptide (Homo sapiens, UniProt Q14145); test: Keap1-Nrf2 TR-FRET (HTRF) assay; assay type: binding
T2 construct: 1nM purified human Keap1 Kelch domain (A321-T609) fused with N-terminal 6x His-tag; made in house
T2 sequence (Q14145 321-609): as above
From the text: as §1, §2, §3, §4, §5, §6, §7, §8, §9, §10, §11
Following the incubation, the PHERAstar FSX […] microplate reader was used to measure the acceptor and donor emissions at 665 nm and 620 nm, respectively. The acceptor/donor ratio was used to calculate relative energy transfer. Data was normalized by two-point normalization using neutral and inhibitor controls (neutral control: DMSO, inhibitor control: 0.1nM 2-[[4-[carboxymethyl-(4-methoxyphenyl)sulfonylamino]naphthale n-1-yl]-(4-methoxyphenyl)sulfonylamino]acetic acid; […]
parameter logistic fit and IC50 values were calculated using Genedata screener software (Genedata, […]

[3] = Table 1, geometric mean ± sd of at least 3 independent repeats unless stated, 20°C
[4] = Table 1, single cycle kinetics, 1:1 Langmuir model
[5] = Table 1, geometric mean ± sd of at least 3 independent repeats unless stated, read-out: TR-FRET IC50

Row | SMILES | Kd [1, 3] [nM] | koff [1, 4] [s⁻¹] | kon [1, 4] [M⁻¹ s⁻¹] | IC50 [2, 5] [nM] | koff ([1]; Table 2) [s⁻¹] | kon ([1]; Table 2) [M⁻¹ s⁻¹] | Kd ([1]; Table 2, geometric mean ± sd of at least two independent repeats) [nM] | IC50 ([2]; Table 2, IC50, minimum of three repeats, read-out: TR-FRET) [nM]
1 | CC(=O)N[C@@H](CC(C)C)C(=O)N[C@@H](CCC(N)=O)C(=O)N[C@H]1CSCc2cccc(c2)CSC[C@@H](C(=O)N[C@@H](CC(C)C)C(N)=O)NC(=O)[C@H](CCC(=O)O)NC(=O)CNC(=O)[C@H]([C@@H](C)O)NC(=O)[C@H](CCC(=O)O)NC(=O)[C@@H]2CCCN2C(=O)[C@H](CC(=O)O)NC1=O [Peptide P2-C] (Ac-LQCDPETGECL-NH2; linker 3-10 via mXylylene) | 36 ± 1.8 | 0.013 | 500000 | 5.6 ± 1.1 |  |  |  | 
2 | CC(=O)N[C@@H](CC(C)C)C(=O)N[C@@H](CCC(N)=O)C(=O)N[C@H]1CSCCc2cc(nc(N(C)CC(=O)O)n2)CCSC[C@@H](C(=O)N[C@@H](CC(C)C)C(N)=O)NC(=O)[C@H](CCC(=O)O)NC(=O)CNC(=O)[C@H]([C@@H](C)O)NC(=O)[C@H](CCC(=O)O)NC(=O)[C@@H]2CCCN2C(=O)[C@H](CC(=O)O)NC1=O [Peptide P2-D] (Ac-LQCDPETGECL-NH2; linker 3-10 via X1) | 54 ± 1.2 | 0.0083 | 160000 | 4.8 ± 1.5 |  |  |  | 
3 | CC(=O)N[C@@H](CC(C)C)C(=O)N[C@@H](CCC(N)=O)C(=O)N[C@@H](CS)C(=O)N[C@@H](CC(=O)O)C(=O)N1CCC[C@H]1C(=O)N[C@@H](CCC(=O)O)C(=O)N[C@H](C(=O)NCC(=O)N[C@@H](CCC(=O)O)C(=O)N[C@@H](CS)C(=O)N[C@@H](CC(C)C)C(N)=O)[C@@H](C)O [Peptide P2] (Ac-LQCDPETGECL-NH2) | 75 |  |  |  |  |  |  | 
4 | CC(=O)N[C@H]1CSCCc2cc(nc(N(C)CC(=O)O)n2)CCSC[C@@H](C(=O)N[C@@H](CC(C)C)C(N)=O)NC(=O)[C@H](CCC(=O)O)NC(=O)CNC(=O)[C@H]([C@@H](C)O)NC(=O)[C@H](CCC(=O)O)NC(=O)[C@@H]2CCCN2C(=O)[C@H](CC(=O)O)NC(=O)[C@H](CC(C)C)NC(=O)[C@H](CCC(N)=O)NC(=O)[C@H](CC(C)C)NC1=O [Peptide P3-D] (Ac-CLQLDPETGECL-NH2; linker 1-11 via X1) | 22 ± 1.3 | 0.0028 | 140000 | 2.4 ± 1.3 |  |  |  | 
5 | CC(=O)N[C@H]1Cn2cc(nn2)-c2cc(C(=O)O)cc(c2)-c2cn(nn2)C[C@@H](C(=O)N[C@@H](CC(C)C)C(N)=O)NC(=O)[C@H](CCC(=O)O)NC(=O)CNC(=O)[C@H]([C@@H](C)O)NC(=O)[C@H](CCC(=O)O)NC(=O)[C@@H]2CCCN2C(=O)[C@H](CC(=O)O)NC(=O)[C@H](CC(C)C)NC(=O)[C@H](CCC(N)=O)NC(=O)[C@H](CC(C)C)NC1=O [Peptide P3Aza-E] | 34 ± 1.3 | 0.0054 | 170000 | 4 ± 1.4 |  |  |  | 
6 | CC(=O)N[C@@H](CS)C(=O)N[C@@H](CC(C)C)C(=O)N[C@@H](CCC(N)=O)C(=O)N[C@@H](CC(C)C)C(=O)N[C@@H](CC(=O)O)C(=O)N1CCC[C@H]1C(=O)N[C@@H](CCC(=O)O)C(=O)N[C@H](C(=O)NCC(=O)N[C@@H](CCC(=O)O)C(=O)N[C@@H](CS)C(=O)N[C@@H](CC(C)C)C(N)=O)[C@@H](C)O [Peptide P3] (Ac-CLQLDPETGECL-NH2) | 19 ± 1.8 | 0.0049 | 180000 | 5 ± 1.5 |  |  |  | 
7 | CC(=O)N[C@@H](CS)C(=O)N[C@@H](CC(=O)O)C(=O)N1CCC[C@H]1C(=O)N[C@@H](CCC(=O)O)C(=O)N[C@H](C(=O)NCC(=O)N[C@@H](CCC(=O)O)C(=O)N[C@@H](CS)C(=O)N[C@@H](CC(C)C)C(N)=O)[C@@H](C)O [Peptide P8] |  |  |  |  | 0.0055 | 95000 | 56 ± 1.3 | 4.9 ± 1.2
